From US20130310374A1, “Substituted Imidazoquinoline Derivatives” (PIRAMAL ENTERPRISES LIMITED`, priority 2010, published 2013)

How the values were obtained:
KCL22 = test: Cytotoxicity propidium iodide assay, KCL22; type: cell-based; settings: Homo sapiens, KCL-22; KCL22 (CML), 48 hours treatment; read-out: IC50 Values in μM, C6f
Protocol: (§1) The assay was designed as in the reference, Anticancer Drugs, 2002, 13, 1-8, the disclosure of which is incorporated herein by reference for the teaching of the assay.
(§2) Cells from cell lines (ATCC) as mentioned in the table given below were seeded at a density of 3000 cells/well in a white opaque 96-well plate. Following incubation at 37° C./5% CO2 for a period of 18-24 hours, the cells were treated with various concentrations (stock solution was prepared in DMSO and subsequent dilutions were made in media as per ATCC guidelines) of the compounds of the present invention for a period of 48 hours. At the end of treatment, the culture medium was discarded, the cells were washed with 1×PBS and 200 μL of […] propidium iodide was added to each well. […] For analysis, the plates were warmed to RT, allowed to thaw and were read in PoleStar fluorimeter with the fluorescence setting. The percentage of viable cells in the non-treated set of wells was considered to be 100 and the percentage viability following treatment was calculated accordingly. IC50 values were calculated from graphs plotted using these percentages. IC50 values for certain compounds of present invention are depicted in Table 1 and % Inhibition of certain compounds of present invention are depicted in Table 2.

PI3Kα = biological target: T1, PI3Kα (Homo sapiens, UniProt P42336); test: p110α radioactive lipid kinase assay (PI3Kα); type: biochemical; settings: 25 μM ATP
T1 construct: purchased Upstate Millipore
T1 sequence (P42336 whole entry, species assumed): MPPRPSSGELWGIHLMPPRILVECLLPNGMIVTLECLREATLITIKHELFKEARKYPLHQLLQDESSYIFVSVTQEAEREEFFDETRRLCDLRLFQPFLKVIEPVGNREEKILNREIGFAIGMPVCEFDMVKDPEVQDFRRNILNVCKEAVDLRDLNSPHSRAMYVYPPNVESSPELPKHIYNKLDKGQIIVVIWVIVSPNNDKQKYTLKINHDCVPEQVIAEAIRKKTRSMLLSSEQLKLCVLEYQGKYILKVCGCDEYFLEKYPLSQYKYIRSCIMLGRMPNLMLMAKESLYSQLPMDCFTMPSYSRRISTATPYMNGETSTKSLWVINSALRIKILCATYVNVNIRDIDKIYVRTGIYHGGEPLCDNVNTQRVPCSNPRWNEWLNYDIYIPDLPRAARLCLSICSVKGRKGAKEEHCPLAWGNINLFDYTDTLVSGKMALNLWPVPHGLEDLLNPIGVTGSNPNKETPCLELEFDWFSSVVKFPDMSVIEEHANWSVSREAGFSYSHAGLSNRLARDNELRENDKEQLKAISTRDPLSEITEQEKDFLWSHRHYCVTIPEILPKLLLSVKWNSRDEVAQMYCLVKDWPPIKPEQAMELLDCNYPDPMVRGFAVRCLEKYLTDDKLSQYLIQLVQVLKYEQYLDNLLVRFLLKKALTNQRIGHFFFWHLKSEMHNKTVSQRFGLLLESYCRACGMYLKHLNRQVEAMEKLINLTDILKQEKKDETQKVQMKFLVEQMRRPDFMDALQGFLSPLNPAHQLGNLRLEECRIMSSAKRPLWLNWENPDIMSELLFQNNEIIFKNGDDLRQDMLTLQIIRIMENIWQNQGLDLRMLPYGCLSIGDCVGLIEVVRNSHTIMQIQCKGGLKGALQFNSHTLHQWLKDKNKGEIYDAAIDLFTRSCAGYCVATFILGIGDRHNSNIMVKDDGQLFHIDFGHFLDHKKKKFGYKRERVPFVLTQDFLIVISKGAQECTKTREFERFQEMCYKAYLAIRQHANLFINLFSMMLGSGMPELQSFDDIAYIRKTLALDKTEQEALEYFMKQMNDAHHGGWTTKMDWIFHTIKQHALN
T1 sequence (P27986 whole entry partner, species assumed): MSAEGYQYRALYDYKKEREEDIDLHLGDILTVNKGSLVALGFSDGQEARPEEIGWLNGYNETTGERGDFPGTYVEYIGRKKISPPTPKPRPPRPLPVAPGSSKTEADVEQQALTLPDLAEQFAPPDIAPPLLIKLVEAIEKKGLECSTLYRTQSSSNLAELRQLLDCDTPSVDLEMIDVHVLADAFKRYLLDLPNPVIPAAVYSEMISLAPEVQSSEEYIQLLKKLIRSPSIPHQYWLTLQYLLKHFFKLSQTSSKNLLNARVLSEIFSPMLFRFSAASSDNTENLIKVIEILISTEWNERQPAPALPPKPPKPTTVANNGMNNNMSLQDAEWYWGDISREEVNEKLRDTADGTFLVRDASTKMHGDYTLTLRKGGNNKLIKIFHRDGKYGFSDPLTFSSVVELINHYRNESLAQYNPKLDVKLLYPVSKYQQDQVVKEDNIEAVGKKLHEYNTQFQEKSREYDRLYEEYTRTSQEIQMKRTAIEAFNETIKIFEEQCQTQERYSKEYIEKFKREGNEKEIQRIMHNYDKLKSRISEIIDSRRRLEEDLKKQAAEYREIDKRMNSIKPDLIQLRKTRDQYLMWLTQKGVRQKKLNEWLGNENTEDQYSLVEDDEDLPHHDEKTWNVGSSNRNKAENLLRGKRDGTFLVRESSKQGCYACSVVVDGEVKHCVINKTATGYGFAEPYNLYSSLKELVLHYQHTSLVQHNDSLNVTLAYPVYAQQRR
Protocol: Protocol for Kinase Assay (PI3Kα)
p110α Radioactive Lipid Kinase Assay
The assay was designed as in the reference, Journal of Biomolecular Screening, 2002, Vol. 7, No. 5, 441-450, the disclosure of which is incorporated herein by reference for the teaching of the assay.
The p110α biochemical assay was performed using a radioactive assay measuring the incorporation of ^32P into the p110α substrate, phosphatidylinsoitol (PI). For the generation of IC50 curves, the reaction was performed in a 96-well MaxiSorp plates. Plates were pre-coated with 4 μg/well of a 1:1 ratio of phosphatidylinositol (PI: Avanti #840042C) and phosphatidylserine (PS: Avanti #840032C) diluted in CHCl3. Equal amount of p110α (Upstate Millipore) protein was added to each well, containing 25 μL reaction buffer (50 mM MOPSO pH7.0, 100 mM NaCl, 4 mM MgCl2, 0.1% (w/v) BSA) whereas, for negative control, only reaction buffer was added. Compounds of the present invention dissolved in DMSO were treated at nine-point dose responses (0.3, 1, 3, 6, 10, 30, 60, 100 and 300 nM). Reactions were initiated by the addition of 25 μM ATP solution (Sigma, USA) containing 50 μCi/mL [γ-^32P]-ATP and incubated at RT for 2 hours with gentle shaking. […] The radioactivity incorporated into the immobilized PI substrate was determined with Top Count (Perkin Elmer). Inhibition was calculated using the following equation: […]

U 87 MG = test: Cytotoxicity propidium iodide assay, U 87 MG; type: cell-based; settings: Homo sapiens; U 87 MG (glioblastoma), 48 hours treatment; read-out: IC50 Values in μM, C5c
Protocol: as §1, §2

ALK2 (ACVR1) = biological target: T2, ALK2 (ACVR1) (Homo sapiens, UniProt Q04771); test: ALK2 inhibition assay (TR-FRET); type: biochemical; settings: 20 μM ATP, read-out: IC50 for ALK-2
T2 construct: recombinant human, catalytic domain of ALK1 (ACVRL1) or ALK2 (ACVR1) kinase GST fusion proteins; GST; purchased Invitrogen, USA
T2 sequence (Q04771 208-502 limits assumed): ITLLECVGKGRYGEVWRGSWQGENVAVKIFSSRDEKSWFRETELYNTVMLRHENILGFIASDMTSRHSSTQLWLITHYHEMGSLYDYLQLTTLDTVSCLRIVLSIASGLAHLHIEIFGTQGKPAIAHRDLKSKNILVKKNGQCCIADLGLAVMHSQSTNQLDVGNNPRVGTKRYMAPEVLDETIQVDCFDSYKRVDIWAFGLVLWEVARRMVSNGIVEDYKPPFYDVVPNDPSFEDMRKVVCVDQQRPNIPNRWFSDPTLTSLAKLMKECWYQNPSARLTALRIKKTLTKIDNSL
Protocol: Protocol for ALK1 and ALK2 Inhibition Assay
The in vitro kinase assays using recombinant human, catalytic domain of ALK1 (ACVRL1) or ALK2 (ACVR1) kinase GST fusion proteins (Invitrogen, USA) were conducted using a time-resolved fluorescence (TR-FRET) format. Kinase reactions were carried out in a 384-well plate format in a final volume of 20 μl. The standard enzyme reaction buffer consisted of 50 mM Tris HCL (pH: 7.4), 1 mM EGTA, 10 mM MgCl2, 2 mM DTT, 0.01% Tween-20, 20 nM of ALK1/ALK2 kinase enzyme (Invitrogen, USA), 50 nM of peptide substrate (DNA Topoisomerase 2 alpha (Thr 1342)U1 peptide, Perkin Elmer, USA) and 20 μM of ATP. Various concentrations of compound of Example 3a in DMSO (final concentration 2%), was added to give a final concentration of the compound ranging from 20 μM to 20 pM. [20 nM of enzyme and compound in various concentrations were pre incubated for 10 minutes at 23° C. followed by the addition of 50 nM of the peptide substrate]. Reaction was initiated with the addition of 20 μM of ATP. After incubation for 1 hour at 23° C., kinase reaction was stopped with the addition of 5 μl EDTA (final concentration of 10 mM in 20 μl). […] The IC50 values for compound of Example 3a were determined by a four-parameter sigmoidal curve fit (Sigma plot or Graph pad).

Row | Compound | IC50 (KCL22) [µM] | IC50 (PI3Kα) [µM] | IC50 (U 87 MG) [µM] | IC50 (ALK2 (ACVR1)) [µM]
1 | Cn1c(=O)n(-c2ccc(C(C)(C)C#N)nc2)c2c3cc(-c4cnc(N)c(C(F)(F)F)c4)ccc3ncc21 [Example 3, 2-(5-(8-(6-Amino-5-(trifluoromethyl)pyridin-3-yl)-3-methyl-2-oxo-2,3-dihydro-1H-imidazo[4,5-c]quinolin-1-yl)pyridin-2-yl)-2-methylpropanenitrile] | 2 |  |  | 
2 | COc1ccc(-n2c(=O)n(C)c3cnc4ccc(-c5cnc(N)c(C(F)(F)F)c5)cc4c32)cn1 [Example 19, 8-(6-Amino-5-(trifluoromethyl)pyridin-3-yl)-1-(6-methoxypyridin-3-yl)-3-methyl-1H-imidazo[4,5-c]quinolin-2(3H)-one] |  | 0.00289 | 3.88 | 
3 | CS(=O)(=O)O.Cn1c(=O)n(-c2ccc(C(C)(C)C#N)nc2)c2c3cc(-c4cnc(N)c(C(F)(F)F)c4)ccc3ncc21 [Example 3a, 8-(6-Amino-5-(trifluoromethyl)pyridin-3-yl)-1-(6-(2-cyanopropan-2-yl)pyridin-3-yl)-3-methyl-2-oxo-2,3-dihydro-1H-imidazo[4,5-c]quinolin-5-ium methanesulfonate] |  | 0.00137 |  | 0.047
4 | CC(C)(C#N)c1ccc(-n2c(=O)n(CC#N)c3cnc4ccc(-c5cnc(N)c(C(F)(F)F)c5)cc4c32)cn1 [Example 16, 2-(5-(8-(6-Amino-5-(trifluoromethyl)pyridin-3-yl)-3-(cyanomethyl)-2-oxo-2,3-dihydro-1H-imidazo[4,5-c]quinolin-1-yl)pyridin-2-yl)-2-methylpropanenitrile] |  |  | 7.75 | 
